These results are taken from PubChem BioAssay (NCI).

SMILES strings stand for the structures.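 Dose response: 5 concentrations. Exposure: 48 h. Format: 96-well plates. Endpoint: linear interpolation; highest concentration if not reached. GI50: concentration for 50% inhibition of growth. TGI marks complete inhibition of growth.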 Bounds are passed on as bounds.

Test systems include EKVX NSCLC; HCC-2998 colon; MOLT-4 leukemia; NCI-H226 lung; SF-268 CNS; SF-295 CNS; SK-MEL-5 melanoma; U251 CNS; UACC-257 melanoma; UACC-62 melanoma.
Holding throughout (experiment): NCI-60 cell line screen, 48 h

Consider `CCN(CC)Cc1cc(Nc2c3ccc(Cl)cc3nc3c(C)cccc23)ccc1O`, for which the GI50 in the assay on EKVX NSCLC was 1.86 µM; with HCC-2998 colon, 1.2 µM; in the assay with MOLT-4 leukemia, 0.855 µM; in the assay with NCI-H226 lung, 1.71 µM; with SF-268 CNS, 1.53 µM; with SF-295 CNS it was 1.78 µM. Further, the GI50 with SK-MEL-5 melanoma was 1.76 µM; in the assay on U251 CNS it was 1.46 µM; in the assay on UACC-257 melanoma it was 1.99 µM; with UACC-62 melanoma, 1.96 µM. The TGI in the assay on EKVX NSCLC turned out to be 3.98 µM; in the assay on HCC-2998 colon it was 2.47 µM; with MOLT-4 leukemia it was 10.9 µM; in the assay with NCI-H226 lung it was 3.51 µM; with SF-268 CNS, 3.09 µM; with SF-295 CNS, 3.34 µM. The TGI with SK-MEL-5 melanoma is 3.15 µM; in the assay on U251 CNS it was 2.84 µM; with UACC-257 melanoma, 3.62 µM; in the assay on UACC-62 melanoma, 3.64 µM.

Take `O=C1NC(=Nc2ccccc2Cl)SC1C(=O)Nc1ccc([N+](=O)[O-])cc1[N+](=O)[O-]` (stereo not given): the TGI with EKVX NSCLC, in the assay with HCC-2998 colon, in the assay with MOLT-4 leukemia, in the assay on NCI-H226 lung, in the assay on SF-268 CNS and in the assay on SF-295 CNS was greater than 100 µM each time. The TGI in the assay with SK-MEL-5 melanoma, in the assay on U251 CNS, with UACC-257 melanoma and in the assay with UACC-62 melanoma was greater than 100 µM throughout.

`O=C1CCC(=O)C(C(=O)CCC(=O)Nc2ccc(Cl)cc2)C1` (stereo not given): the TGI in the assay on EKVX NSCLC, in the assay on HCC-2998 colon, with MOLT-4 leukemia, in the assay on NCI-H226 lung, with SF-268 CNS and in the assay on SF-295 CNS was greater than 100 µM in each case. Besides, the TGI in the assay on SK-MEL-5 melanoma, with U251 CNS, in the assay with UACC-257 melanoma and in the assay on UACC-62 melanoma was greater than 100 µM in each case.

Consider `N#CSc1cc(-c2nc3ccccc3o2)ccc1N`, for which the GI50 in the assay on EKVX NSCLC was 5 µM; in the assay with HCC-2998 colon, 22.6 µM; with MOLT-4 leukemia it was 4.09 µM; in the assay with NCI-H226 lung, 5.23 µM; in the assay with SF-268 CNS it was 22.6 µM; in the assay with SF-295 CNS it was 17.1 µM. For the same molecule, the GI50 was 11.1 µM in the assay with SK-MEL-5 melanoma, 11.8 µM in the assay with U251 CNS, 1.77 µM with UACC-257 melanoma and 13.6 µM with UACC-62 melanoma. Also, the TGI in the assay with EKVX NSCLC is 37.2 µM; in the assay on HCC-2998 colon it was greater than 100 µM; in the assay with MOLT-4 leukemia, 22.1 µM; with NCI-H226 lung, 37.8 µM; in the assay with SF-268 CNS it was 83.4 µM; in the assay with SF-295 CNS, greater than 74.1 µM. The TGI in the assay on SK-MEL-5 melanoma came to 29.2 µM; in the assay on U251 CNS, 57.3 µM; in the assay with UACC-257 melanoma, 26.4 µM; with UACC-62 melanoma it was 30.8 µM.

With `Nc1cc2ccncc2c2ccccc12`, the GI50 in the assay on EKVX NSCLC is 19.3 µM; with HCC-2998 colon, 14.2 µM; in the assay on MOLT-4 leukemia it was 5.35 µM; with NCI-H226 lung, 5.75 µM; with SF-268 CNS, 11.1 µM; in the assay on SF-295 CNS, 10.8 µM. For the same molecule, the GI50 is 15.3 µM in the assay on SK-MEL-5 melanoma, 21 µM in the assay on U251 CNS, 13.6 µM with UACC-257 melanoma and 13.5 µM with UACC-62 melanoma. The TGI with EKVX NSCLC is greater than 100 µM; in the assay with HCC-2998 colon it was 40.4 µM; in the assay on MOLT-4 leukemia, greater than 100 µM; in the assay on NCI-H226 lung it was 73.6 µM; in the assay with SF-268 CNS, 52.5 µM; with SF-295 CNS, 57.4 µM. For the same molecule, the TGI was 31.2 µM in the assay with SK-MEL-5 melanoma, greater than 100 µM in the assay with U251 CNS, 29.7 µM in the assay with UACC-257 melanoma and 38.7 µM in the assay with UACC-62 melanoma.

`CC(=O)OC1CC2C(C)(C)C(=O)C=C[C@]2(C)C2CCC3(C)C(=CCC3[C@H](CO)C[C@H](O)C(=O)C(C)(C)O)[C@]12C` (stereo not given in full): the TGI in the assay with EKVX NSCLC was 38.5 µM; in the assay on HCC-2998 colon it was 34.1 µM; in the assay on MOLT-4 leukemia, 89.5 µM; with NCI-H226 lung, 42.2 µM; in the assay on SF-268 CNS, 82.2 µM; in the assay on SF-295 CNS, 27.7 µM. In addition, the TGI came to 42 µM in the assay with SK-MEL-5 melanoma, 31.5 µM in the assay with U251 CNS, 30.8 µM with UACC-257 melanoma and 31.6 µM with UACC-62 melanoma.

Consider `CN(C)CC1CCCCCCCCCCC1=O` (stereo not given), for which the GI50 with EKVX NSCLC, in the assay with MOLT-4 leukemia, with NCI-H226 lung, with SF-268 CNS and in the assay with U251 CNS was greater than 100 µM each time. Besides, the TGI in the assay on EKVX NSCLC was greater than 100 µM; in the assay with HCC-2998 colon it was greater than 10 µM; with MOLT-4 leukemia, greater than 100 µM; with NCI-H226 lung, greater than 100 µM; in the assay with SF-268 CNS it was greater than 100 µM; with SF-295 CNS, greater than 10 µM. For the same molecule, the TGI with SK-MEL-5 melanoma was greater than 100 µM; in the assay on U251 CNS, greater than 100 µM; in the assay with UACC-257 melanoma, greater than 10 µM; in the assay on UACC-62 melanoma, greater than 100 µM.
